In brackets after ≈: the same amount, converted by molar mass.

The test system of assay [1] is Enterococcus foecalis MGH2. As to the kind of experiment: Antibacterial activity, microtitration dilution method. The class given is cell-based. The following applies: read-out: minimum inhibitory concentration (MIC). From the text: (§1) The compounds of the invention display antibacterial activity when tested by the microtitration dilution method as described in Heifetz, et al., Antimicr. Agents. & Chemoth. 6: 124 (1974) which is incorporated herein by reference.
(§2) By use of the above referenced method, the following minimum inhibitory concentration values (MICs in μg/mL) were obtained for representative compounds of the invention vs. clinically relevant gram positive pathogens which have become highly resistant to conventional therapy in recent years.

Assay [2] deals with Staphylococcus aureus H228. The description is as above. Particulars: read-out: minimum inhibitory concentration (MIC). The class given is cell-based.
From the text: as §1, §2

In assay [3] the test system is Staphylococcus aureus UC-76. Described as above. The following applies: UC76, read-out: minimum inhibitory concentration (MIC). The assay is classed as cell-based.
From the text: as §1, §2

Assay [4] deals with Streptococcus pneumonia 5V-1. The assay is described as above. The class given is cell-based. The following applies: Streptococcus pneumoniae, 5V1, read-out: minimum inhibitory concentration (MIC).
From the text: as §1, §2

The test system of assay [5] is Streptococcus pyogenes C203. The assay is described as above. The assay is classed as cell-based. The following applies: read-out: minimum inhibitory concentration (MIC).
From the text: as §1, §2

Assay [6] deals with HIV. Particulars: cell-free and cell-mediated HIV infection; cited from earlier work.

Take `CC(C)CC(SC1CCCCC1)c1c(O)cc(-c2ccccc2)oc1=O` (racemic) [Example 142, 3-[l-(Cyclohexylthio)-3-methylbutyl]-4-hydroxy-6-phenyl-2H-pyran-2-one (±)]: the MIC came to 25 mg/L (≈ 67.1 µM) in assay [1]; 12.5 mg/L (≈ 33.6 µM) in assay [2]; 12.5 mg/L (≈ 33.6 µM) in assay [3]; 25 mg/L (≈ 67.1 µM) in assay [4]; 25 mg/L (≈ 67.1 µM) in assay [5].
In the case of `CC(=O)CC(c1ccccc1)c1c(O)c2ccccc2oc1=O` (stereo not drawn) [Warfarin, 3-(α-acetonylbenzyl)-4-hydroxycoumarin], the “HIV infection inhibition (in words)” value in assay [6] is “inhibiting cell-free and cell-mediated HIV infection”.

(Values after patent US6005103A, “Pyrone derivatives as protease inhibitors and antiviral agents” (Warner-Lambert Company, priority 1994, dated 1999).)
